The NIST ThermoML archive (doi:10.1021/je900596d)

Conditions: 323.21 K, Fluid (supercritical or subcritical phases), Vibrating tube method

FC(F)=C(F)C(F)(F)F [hexafluoropropene]
Conditions	mass density [kg/m3]
17.7 kPa	0.97
21.7 kPa	1.12
25.1 kPa	1.38
28.9 kPa	1.62
32.8 kPa	1.83
36.6 kPa	2.07
40.3 kPa	2.22
44.1 kPa	2.51
47.8 kPa	2.68
51.6 kPa	2.99
55.2 kPa	3.08
58.9 kPa	3.32
62.6 kPa	3.51
66.1 kPa	3.74
69.7 kPa	3.92
73.2 kPa	4.09
76.7 kPa	4.26
80.2 kPa	4.49
83.7 kPa	4.72
87.1 kPa	4.86
90.6 kPa	5.07
94.4 kPa	5.41
98.1 kPa	5.54
101.5 kPa	5.74
105.2 kPa	6.02
112.5 kPa	6.44
116.2 kPa	6.58
119.7 kPa	6.8
123.2 kPa	7
126.7 kPa	7.23
130.2 kPa	7.42
133.8 kPa	7.66
137.6 kPa	7.92
141.6 kPa	8.08
145.4 kPa	8.32
149.3 kPa	8.52
153.2 kPa	8.77
157.1 kPa	8.98
160.9 kPa	9.22
164.8 kPa	9.47
168.8 kPa	9.71
172.6 kPa	9.88
176.5 kPa	10.13
180.3 kPa	10.38
184.3 kPa	10.62
188.1 kPa	10.76
195.8 kPa	11.28
199.7 kPa	11.49
203.6 kPa	11.86
207.4 kPa	12.01
211.1 kPa	12.24
215 kPa	12.39
218.8 kPa	12.6
222.7 kPa	12.84
226.4 kPa	13.16
230.2 kPa	13.39
233.8 kPa	13.5
237.7 kPa	13.84
241.4 kPa	14.08
245.2 kPa	14.29
249 kPa	14.46
252.7 kPa	14.72
260.3 kPa	15.25
268.1 kPa	15.67
272.2 kPa	15.98
276.4 kPa	16.15
280.6 kPa	16.35
284.7 kPa	16.67
288.7 kPa	16.87
292.9 kPa	17.17
297.1 kPa	17.47
301.3 kPa	17.8
305.4 kPa	17.98
309.6 kPa	18.21
313.9 kPa	18.45
318 kPa	18.81
322 kPa	19
326.2 kPa	19.25
330.3 kPa	19.52
334.5 kPa	19.75
338.7 kPa	20.05
342.9 kPa	20.26
347 kPa	20.58
351.2 kPa	20.86
355.4 kPa	21.13
359.5 kPa	21.34
363.6 kPa	21.63
367.7 kPa	21.82
371.9 kPa	22.12
376 kPa	22.33
380 kPa	22.69
384.1 kPa	22.94
388.2 kPa	23.18
392.3 kPa	23.49
396.4 kPa	23.69
404.4 kPa	24.26
408.5 kPa	24.53
412.5 kPa	24.78
416.5 kPa	25
420.6 kPa	25.28
424.6 kPa	25.54
432.5 kPa	26.08
436.6 kPa	26.31
444.4 kPa	26.88
448.4 kPa	27.13
487.5 kPa	29.75
499 kPa	30.39
510.4 kPa	31.18
521.8 kPa	31.98
533.3 kPa	32.74
544.4 kPa	33.53
555.6 kPa	34.31
566.8 kPa	35.09
577.8 kPa	35.78
588.8 kPa	36.55
599.7 kPa	37.33
610.7 kPa	38.21
621.5 kPa	38.96
632.3 kPa	39.67
643 kPa	40.4
653.8 kPa	41.25
664.3 kPa	42.12
675 kPa	42.78
687.2 kPa	43.61
697.7 kPa	44.47
708.1 kPa	45.16
721.9 kPa	46.18
735.5 kPa	47.22
747.6 kPa	48.18
759.6 kPa	49.01
769.7 kPa	49.86
784.6 kPa	50.99
799.5 kPa	52.13
814.1 kPa	53.28
